In brackets after ≈: the same amount, converted by molar mass. Where a SMILES comes first, the peptide text is derived from it. [ ]: non-standard residue; d: D form. The star is where a group is joined. Palmitoyl = CCCCCCCCCCCCCCCC(=O)*; Lauroyl = CCCCCCCCCCCC(=O)*; Pentanoyl = CCCCC(=O)*; AEEA = NCCOCCOCC(=O)O; Ahx = NCCCCCC(=O)O; βAla = NCCC(=O)O
Legend:
[1] = test system: E. coli PCM 2057; assay: MIC, broth microdilution; assay type: cell-based, Escherichia coli; conditions: E. coli PCM 2057, 24 h
Text: (§1) Escherichia coli (PCM 2057 = ATCC 25922), Staphylococcus aureus (PCM 2054 = ATCC 25923), Staphylococcus epidermidis (PCM 2118 = ATCC 14990), Bacillus subtilis (PCM 2224 = ATCC 9799), Bacillus cereus (PCM 482 = ATCC 10702) and Pseudomonas aeruginosa (PCM 499 = ATCC 10145) were obtained from the Polish Collection of Microorganisms. Fungi strains Candida albicans (CCM 8186 = CNTC 49/64), Candida glabrata (CCM 8270 = ATCC 90030), Candida parapsilosis (CCM 8260 = ATCC 22019) and Candida krusei (CCM 8271 = ATCC 6258) were acquired from the Czech Collection of Microorganisms. S. aureus USA300 (wild type strain), the reference strain of Klebsiella pneumoniae (ATCC 13883) and clinical isolates of Pseudomonas aeruginosa (PA1, PA2) collected from nonrelated patients admitted to the Stefan Zeromski Specialist Municipal Hospital in Krakow (Poland) were kindly provided by the research group of the Department of Microbiology, Faculty of Biochemistry, Biophysics and Biotechnology, Jagiellonian University, Krakow, Poland.
(§2) Luria-Bertani broth (LB) and Sabouraud Dextrose broth (SB) (Biocorp, Poland) were used for cultivation of bacteria and fungi strains, respectively. The antimicrobial activity of the peptides were analyzed through determination of MIC (minimal inhibitory concentration) parameters according to Clinical and Laboratory Standards (CLSI) guidelines developed for aerobic bacteria and yeasts, respectively. Mueller-Hinton broth (MHB) was used as the working medium for all bacterial strains, while in the case of fungi, RPMI-1640 (with L-glutamine, without sodium bicarbonate) growth medium buffered with MOPS (morpholinepropanesulfonic acid) and supplemented with 2% glucose was used. Inoculum was prepared from freshly grown cultures of microorganisms at their exponential phase of growth. […] Plates were then incubated for 24 h at 37 °C in the case of bacteria and at 35 °C in the case of fungi. After that time, absorbance was read at 590 nm with a Perkin Elmer plate reader. Cultures without peptide were treated as positive control, while uninoculated media were defined as negative control. All measurements were run at least in triplicate.

[2] = test system: S. aureus (PCM 2054) biofilm; assay: Biofilm inhibition assay (MTT); assay type: cell-based, Staphylococcus aureus; conditions: S. aureus biofilm development, 24 h post-inoculation
Experimental: In the case of bacteria, an overnight culture of S. aureus in Tryptic Soy Broth (TSB) supplemented with 2% glucose (TSB/+G) was used to prepare inoculum for the experiments. Briefly, 5 mL of 24 h culture was centrifuged at 5000× g, washed with sterile PBS and suspended in a fresh 2 × concentrated TSB/+G. In the case of yeasts, the overnight culture of C. albicans in Sabouraud dextrose broth (SB) was used for inoculum preparation. Similar to above, 5 mL of 24 h culture was centrifuged, washed with PBS and then suspended in sterile 2 × concentrated RPMI-1640 medium (with L-glutamine, without sodium bicarbonate) supplemented with 2% glucose (RPMI-1640/+G). In both cases, the cell concentration of the inoculum was about 1 × 10^7 cells per ml.
For the determination of the inhibitory concentration that reduced biofilm development by 50% (BIC50^, expressed in µg/mL), 100 µL inoculum in 2 × concentrated RPMI-1640/+G medium (in the case of C. albicans) or 2 x concentrated TSB/+G broth (in the case of S. aureus) was transferred to each well of 96-well plates containing 100 µL of serially diluted in water tested compounds. The final concentrations of the compounds were the same as those used in MIC determination studies. The 96-well plates were then incubated for 24 h at 37 °C and 35 °C in the case of bacteria and fungi, respectively. Viability of the microorganisms in the presence of the tested compounds was analyzed by means of MTT assay.
(§3) The reduction in biofilm viability was analyzed by means of MTT assay. Briefly, 20 μL of MTT solution (5 mg/mL in PBS) was added to prewashed wells with exchanged medium (180 μL of fresh medium) wells containing bacterial/yeast biofilms. Plates were then incubated in the dark for the next 3 h at 37 °C. After that time, the medium was replaced with 6 mM HCl in isopropanol and, when the reduced MTT was fully dissolved, the plates were read at 570 nm. Activity against fully developed 24 h old biofilm was described as biofilm eradication concentration (BEC50 expressed in µg/mL), which corresponded to the concentration of the compound able to reduce 50% of biofilm viability compared with the growth control.

[3] = test system: S. epidermidis PCM 2118; assay: MIC, broth microdilution; assay type: cell-based, Staphylococcus epidermidis; conditions: S. epidermidis PCM 2118, 24 h
Text: as §1, §2

[4] = test system: S. aureus (PCM 2054) biofilm; assay: Biofilm eradication assay, pre-formed 24 h old biofilm (MTT); assay type: cell-based, Staphylococcus aureus; conditions: S. aureus pre-formed 24 h old biofilm, 24 h treatment
Experimental: Biofilm eradication activity of the synthesized compounds was analyzed against 24 h old biofilms of S. aureus and C. albicans. In the case of bacteria, an overnight culture of S. aureus in Tryptic Soy Broth (TSB) supplemented with 2% glucose (TSB/+G) was used to prepare inoculum for the experiments. Briefly, 5 mL of 24 h culture was centrifuged at 5000× g, washed with sterile PBS and suspended in a fresh TSB/+G. The bacterial suspension was then diluted in a fresh growth medium to obtain the final concentration of colonies of about 1 × 10^7 cells per ml. Further, 200 μL of the inoculum was transferred to each well of 96-well sterile polystyrene flat-bottomed plate, and bacteria were then incubated for the next 24 h without shaking at 37 °C.
After that, each well of the plates containing bacterial or fungi biofilm was washed three times with PBS in order to remove all non-adherent cells. Then, peptide solutions of 200 µL ranging from 50 to 0,39 µg/mL prepared in TSB +/G in the case of experiments on S. aureus biofilm, and (RPMI-1640/+G) in the case of C. alibcans, were prepared and transferred into the microtiter plates. After the addition of the peptides, the experiments were continued for the next 24 h.
as §3

Q: What does the source list for `CC[C@H](C)[C@H](NC(=O)COCCOCCNC(=O)[C@H](Cc1c[nH]cn1)NC(=O)CCNC(=O)CCCCCN)C(=O)N[C@@H](CCCCN)C(=O)N[C@@H](CCCCN)C(=O)N[C@H](C(=O)N[C@@H](CC(C)C)C(=O)N[C@@H](CO)C(=O)N[C@@H](CCCCN)C(=O)N[C@H](C(=O)N[C@@H](CCCCN)C(=O)N[C@@H](CCCCN)C(=O)N[C@@H](CC(C)C)C(=O)N[C@@H](CC(C)C)C(N)=O)[C@@H](C)CC)[C@@H](C)CC` [AHX-CAR-PEG-DK5] (H-[Ahx][βAla]H[AEEA]IKKILSKIKKLL-NH2)?
A: MIC100 [1]: >50 mg/L; BIC50 [2]: >50 µg/mL; MIC100 [3]: 6.25 mg/L (≈ 3.31 µM); BEC50 [4]: >50 µg/mL

Q: Which results are given for `CC[C@H](C)[C@H](NC(=O)CCCCCN)C(=O)N[C@@H](CCCCN)C(=O)N[C@@H](CCCCN)C(=O)N[C@H](C(=O)N[C@@H](CC(C)C)C(=O)N[C@@H](CO)C(=O)N[C@@H](CCCCN)C(=O)N[C@H](C(=O)N[C@@H](CCCCN)C(=O)N[C@@H](CCCCN)C(=O)N[C@@H](CC(C)C)C(=O)N[C@@H](CC(C)C)C(N)=O)[C@@H](C)CC)[C@@H](C)CC` [AHX-DK5] (H-[Ahx]IKKILSKIKKLL-NH2)?
A: MIC100 [1]: 12.5 mg/L (≈ 8.13 µM); BIC50 [2]: 6.25 µg/mL; MIC100 [3]: 0.78 mg/L (≈ 0.507 µM); BEC50 [4]: 25 µg/mL

Q: How did the MIC100 [1] turn out when `CCCCC(=O)NCCC(=O)N[C@@H](Cc1c[nH]cn1)C(=O)NCCOCCOCC(=O)N[C@H](C(=O)N[C@@H](CCCCN)C(=O)N[C@@H](CCCCN)C(=O)N[C@H](C(=O)N[C@@H](CC(C)C)C(=O)N[C@@H](CO)C(=O)N[C@@H](CCCCN)C(=O)N[C@H](C(=O)N[C@@H](CCCCN)C(=O)N[C@@H](CCCCN)C(=O)N[C@@H](CC(C)C)C(=O)N[C@@H](CC(C)C)C(N)=O)[C@@H](C)CC)[C@@H](C)CC)[C@@H](C)CC` [C5-CAR-PEG-DK5] ({Pentanoyl-βAla}-H[AEEA]IKKILSKIKKLL-NH2) was run?
A: >50 mg/L

Q: What about the BIC50 [2] of the same compound?
A: >50 µg/mL

Q: And the MIC100 [3]?
A: 6.25 mg/L (≈ 3.36 µM)

Q: And the BEC50 [4]?
A: >50 µg/mL

Q: How did the MIC100 [1] turn out when `CCCCCCCCCCCC(=O)NCCC(=O)N[C@@H](Cc1c[nH]cn1)C(=O)NCCOCCOCC(=O)N[C@H](C(=O)N[C@@H](CCCCN)C(=O)N[C@@H](CCCCN)C(=O)N[C@H](C(=O)N[C@@H](CC(C)C)C(=O)N[C@@H](CO)C(=O)N[C@@H](CCCCN)C(=O)N[C@H](C(=O)N[C@@H](CCCCN)C(=O)N[C@@H](CCCCN)C(=O)N[C@@H](CC(C)C)C(=O)N[C@@H](CC(C)C)C(N)=O)[C@@H](C)CC)[C@@H](C)CC)[C@@H](C)CC` [C12-CAR-PEG-DK5] ({Lauroyl-βAla}-H[AEEA]IKKILSKIKKLL-NH2) was run?
A: 3.13 mg/L (≈ 1.6 µM)

Q: What about the MIC100 [3] of the same compound?
A: 0.78 mg/L (≈ 0.398 µM)

Q: `CCCCCCCCCCCCCCCC(=O)NCCC(=O)N[C@@H](Cc1c[nH]cn1)C(=O)NCCOCCOCC(=O)N[C@H](C(=O)N[C@@H](CCCCN)C(=O)N[C@@H](CCCCN)C(=O)N[C@H](C(=O)N[C@@H](CC(C)C)C(=O)N[C@@H](CO)C(=O)N[C@@H](CCCCN)C(=O)N[C@H](C(=O)N[C@@H](CCCCN)C(=O)N[C@@H](CCCCN)C(=O)N[C@@H](CC(C)C)C(=O)N[C@@H](CC(C)C)C(N)=O)[C@@H](C)CC)[C@@H](C)CC)[C@@H](C)CC` [C16-CAR-PEG-DK5] ({Palmitoyl-βAla}-H[AEEA]IKKILSKIKKLL-NH2) was tested. Which MIC100 [1] did it give?
A: >50 mg/L

Q: And the BIC50 [2]?
A: 10 µg/mL

Q: And the MIC100 [3]?
A: 25 mg/L (≈ 12.4 µM)

Q: And the BEC50 [4]?
A: 6.25 µg/mL

Q: With `CC[C@H](C)[C@H](NC(=O)COCCOCCNC(=O)[C@H](Cc1c[nH]cn1)NC(=O)CCN)C(=O)N[C@@H](CCCCN)C(=O)N[C@@H](CCCCN)C(=O)N[C@H](C(=O)N[C@@H](CC(C)C)C(=O)N[C@@H](CO)C(=O)N[C@@H](CCCCN)C(=O)N[C@H](C(=O)N[C@@H](CCCCN)C(=O)N[C@@H](CCCCN)C(=O)N[C@@H](CC(C)C)C(=O)N[C@@H](CC(C)C)C(N)=O)[C@@H](C)CC)[C@@H](C)CC` [CAR-PEG-DK5] (H-[βAla]H[AEEA]IKKILSKIKKLL-NH2; N-terminus and C-terminus assumed) as the compound, how does the MIC100 [1] read?
A: >50 mg/L

Q: And the BIC50 [2]?
A: >50 µg/mL

Q: And the MIC100 [3]?
A: 3.9 mg/L (≈ 2.19 µM)

Q: And the BEC50 [4]?
A: >50 µg/mL

Q: With `CCCCC(=O)N[C@H](C(=O)N[C@@H](CCCCN)C(=O)N[C@@H](CCCCN)C(=O)N[C@H](C(=O)N[C@@H](CC(C)C)C(=O)N[C@@H](CO)C(=O)N[C@@H](CCCCN)C(=O)N[C@H](C(=O)N[C@@H](CCCCN)C(=O)N[C@@H](CCCCN)C(=O)N[C@@H](CC(C)C)C(=O)N[C@@H](CC(C)C)C(N)=O)[C@@H](C)CC)[C@@H](C)CC)[C@@H](C)CC` [Compound C5-DK5] (Pentanoyl-IKKILSKIKKLL-NH2) as the compound, how does the MIC100 [1] read?
A: 3.13 mg/L (≈ 2.08 µM)

Q: What about the BIC50 [2] of the same compound?
A: 6.25 µg/mL

Q: And the MIC100 [3]?
A: 0.78 mg/L (≈ 0.517 µM)

Q: And the BEC50 [4]?
A: >50 µg/mL

Q: Which results are given for `CCCCCCCCCCCC(=O)N[C@H](C(=O)N[C@@H](CCCCN)C(=O)N[C@@H](CCCCN)C(=O)N[C@H](C(=O)N[C@@H](CC(C)C)C(=O)N[C@@H](CO)C(=O)N[C@@H](CCCCN)C(=O)N[C@H](C(=O)N[C@@H](CCCCN)C(=O)N[C@@H](CCCCN)C(=O)N[C@@H](CC(C)C)C(=O)N[C@@H](CC(C)C)C(N)=O)[C@@H](C)CC)[C@@H](C)CC)[C@@H](C)CC` [Compound C12-DK5] (Lauroyl-IKKILSKIKKLL-NH2)?
A: MIC100 [1]: 12.5 mg/L (≈ 7.78 µM); BIC50 [2]: 6.25 µg/mL; MIC100 [3]: 0.78 mg/L (≈ 0.486 µM); BEC50 [4]: 6.25 µg/mL

Q: What does the source list for `CCCCCCCCCCCCCCCC(=O)N[C@H](C(=O)N[C@@H](CCCCN)C(=O)N[C@@H](CCCCN)C(=O)N[C@H](C(=O)N[C@@H](CC(C)C)C(=O)N[C@@H](CO)C(=O)N[C@@H](CCCCN)C(=O)N[C@H](C(=O)N[C@@H](CCCCN)C(=O)N[C@@H](CCCCN)C(=O)N[C@@H](CC(C)C)C(=O)N[C@@H](CC(C)C)C(N)=O)[C@@H](C)CC)[C@@H](C)CC)[C@@H](C)CC` [Compound C16-DK5] (Palmitoyl-IKKILSKIKKLL-NH2)?
A: MIC100 [1]: >50 mg/L; BIC50 [2]: 6.25 µg/mL; MIC100 [3]: 25 mg/L (≈ 15 µM); BEC50 [4]: 6.25 µg/mL

Source: publication PMC8269107, “Lipidation of Temporin-1CEb Derivatives as a Tool for Activity Improvement, Pros and Cons of the Approach” (International Journal of Molecular Sciences, 2021)
